Measured values reported in ChEMBL document CHEMBL3997820, “Synthesis and evaluation of anticonvulsant properties of new N-Mannich bases derived from pyrrolidine-2,5-dione and its 3-methyl-, 3-isopropyl, and 3-benzhydryl analogs” (Bioorg Med Chem Lett, 2017).
Calls of active or inactive are those of the source. No cut-off for these calls is given here.

Legend:
Mus musculus [1] = experiment: Anticonvulsant activity in albino CD1 mouse assessed as protection against subcutaneous pentylenetetrazole-induced seizures at 300 mg/kg, ip measured after 0.5 hrs; type: functional, organism-based
Mus musculus [2] = experiment: Neurotoxicity in albino CD1 mouse assessed as motor impairment at 300 mg/kg, ip measured after 4 hrs by rotarod test; type: toxicity, organism-based; details: in vivo
Mus musculus [3] = experiment: Anticonvulsant activity in albino CD1 mouse assessed as protection against maximal electroshock-induced seizures at 300 mg/kg, ip measured after 4 hrs; type: functional, organism-based
Mus musculus [4] = experiment: Anticonvulsant activity in albino CD1 mouse assessed as protection against subcutaneous pentylenetetrazole-induced seizures at 300 mg/kg, ip measured after 4 hrs; type: functional, organism-based
Mus musculus [5] = experiment: Anticonvulsant activity in albino CD1 mouse assessed as protection against maximal electroshock-induced seizures at 300 mg/kg, ip measured after 0.5 hrs; type: functional, organism-based
Mus musculus [6] = experiment: Neurotoxicity in albino CD1 mouse assessed as motor impairment at 300 mg/kg, ip measured after 0.5 hrs by rotarod test; type: toxicity, organism-based; details: in vivo
Mus musculus [7] = experiment: Anticonvulsant activity in ip dosed albino CD1 mouse assessed as protection against subcutaneous pentylenetetrazole-induced seizures; type: functional
[8] = Neurotoxicity in ip dosed albino CD1 mouse assessed as motor impairment by rotarod test; type: toxicity, organism-based; details: in vivo
Mus musculus [9] = experiment: Protection index, ratio of TD50 for motor impairment in ip dosed albino CD1 mouse to ED50 for protection against subcutaneous pentylenetetrazole-induced seizures in ip dosed albino CD1 mouse
Mus musculus [10] = experiment: Anticonvulsant in ip dosed CD1 mouse assessed as time to peak effect; type: functional
Mus musculus [11] = experiment: Anticonvulsant activity in ip dosed albino CD1 mouse assessed as minimum dose required to protect subcutaneous pentylenetetrazole-induced seizures in half and more mouse measured after 4 hrs; type: functional
Mus musculus [12] = experiment: Anticonvulsant activity in ip dosed albino CD1 mouse assessed as protection against 32 mA current-induced seizure by 6 Hz psychomotor test; type: functional
Mus musculus [13] = experiment: Anticonvulsant activity in ip dosed albino CD1 mouse assessed as minimum dose required to protect maximal electroshock-induced seizures in half and more mouse measured after 0.5 hrs; type: functional
Mus musculus [14] = experiment: Anticonvulsant activity in ip dosed albino CD1 mouse assessed as minimum dose required to protect subcutaneous pentylenetetrazole-induced seizures in half and more mouse measured after 0.5 hrs; type: functional
Mus musculus [15] = experiment: Protection index, ratio of TD50 for motor impairment in ip dosed albino CD1 mouse to ED50 for protection against 32 mA current-induced seizure in ip dosed albino CD1 mouse by 6 Hz psychomotor test
Mus musculus [16] = experiment: Anticonvulsant activity in albino CD1 mouse assessed as protection against 32 mA current-induced seizure incidents at 100 mg/kg, ip after 0.5 hrs by 6 Hz psychomotor test; type: functional
Mus musculus [17] = experiment: Neurotoxicity in ip dosed albino CD1 mouse assessed as minimum dose required to induce motor impairment in half and more mouse measured after 0.5 hrs by rotarod test; type: toxicity, organism-based; details: in vivo
Mus musculus [18] = experiment: Anticonvulsant activity in ip dosed albino CD1 mouse assessed as minimum dose required to protect maximal electroshock-induced seizures in half and more mouse measured after 4 hrs; type: functional
Mus musculus [19] = experiment: Anticonvulsant activity in albino CD1 mouse assessed as protection against 32 mA current-induced seizure at 100 mg/kg, ip after 4 hrs by 6 Hz psychomotor test; type: functional, organism-based
Mus musculus [20] = experiment: Anticonvulsant activity in albino CD1 mouse assessed as protection against 32 mA current-induced seizure at 100 mg/kg, ip after 0.5 hrs by 6 Hz psychomotor test; type: functional

Row | Compound | Activity (Mus musculus [1]) | Activity (Mus musculus [2]) | Activity (Mus musculus [3]) | Activity (Mus musculus [4]) | Activity (Mus musculus [5]) | Activity (Mus musculus [6]) | other results
1 | O=C1CCC(=O)N1CN1CCN(CCO)CC1 | inactive | Non-Toxic | inactive | inactive | inactive | Non-Toxic | 
2 | CC(C)C1CC(=O)N(CN2CCN(C3CCCCC3)CC2)C1=O (configuration not stated) | inactive | Non-Toxic | inactive |  | inactive | Non-Toxic | ED50 (Mus musculus [7]): 91.8 mg/kg; TD50 [8]: < 200 mg/kg; Ratio TD50/ED50 (Mus musculus [9]): <2.17; Time (Mus musculus [10]): 0.5 h; Activity (Mus musculus [11]): 100 mg/kg
3 | CCC1(C)CC(=O)NC1=O (configuration not stated) [ETHOSUXIMIDE] |  |  |  |  |  |  | Time (Mus musculus [10]): 0.25 h
4 | CC1CC(=O)N(CN2CCN(CCO)CC2)C1=O (configuration not stated) | inactive | Non-Toxic | inactive | inactive | inactive | Non-Toxic | 
5 | O=C1CCC(=O)N1CN1CCN(Cc2ccccc2)CC1 | inactive | Non-Toxic | inactive | inactive | inactive | Non-Toxic | 
6 | CC[C@@H](C(N)=O)N1CCCC1=O |  |  |  |  |  |  | TD50 [8]: > 500 mg/kg; Time (Mus musculus [10]): 1 h
7 | O=C1CCC(=O)N1CN1CCOCC1 | inactive | Non-Toxic | inactive | inactive | inactive | Non-Toxic | 
8 | CCCC(CCC)C(=O)O [VALPROIC ACID] |  |  |  |  |  |  | ED50 (Mus musculus [7]): 240 mg/kg; Time (Mus musculus [10]): 0.5 h; ED50 (Mus musculus [12]): 131 mg/kg
9 | O=C1CCC(=O)N1CN1CCC(Cc2ccccc2)CC1 | inactive | Non-Toxic | inactive | inactive | inactive | Non-Toxic | 
10 | O=C1CCC(=O)N1CN1CCN(c2ncccn2)CC1 | inactive | Non-Toxic | inactive | inactive | inactive | Non-Toxic | 
11 | O=C1CC(C(c2ccccc2)c2ccccc2)C(=O)N1CN1CCC(Cc2ccccc2)CC1 (configuration not stated) | inactive | Non-Toxic | inactive | inactive | inactive | Non-Toxic | 
12 | CC1CC(=O)N(CN2CCC(Cc3ccccc3)CC2)C1=O (configuration not stated) | inactive | Non-Toxic | inactive | inactive | inactive | Non-Toxic | 
13 | CC(C)C1CC(=O)N(CN2CCN(c3ncccn3)CC2)C1=O (configuration not stated) | inactive | Non-Toxic | inactive | inactive | inactive | Non-Toxic | 
14 | O=C1CC(C(c2ccccc2)c2ccccc2)C(=O)N1CN1CCN(CCO)CC1 (configuration not stated) |  | Non-Toxic |  |  |  |  | ED50 (Mus musculus [7]): 83.1 mg/kg; Activity (Mus musculus [13]): 300 mg/kg; TD50 [8]: 222 mg/kg; Activity (Mus musculus [14]): 100 mg/kg; Ratio TD50/ED50 (Mus musculus [9]): 2.67; Ratio TD50/ED50 (Mus musculus [15]): 4.29; Activity (Mus musculus [16]): 66%; Activity (Mus musculus [17]): 300 mg/kg; Activity (Mus musculus [18]): 300 mg/kg; Time (Mus musculus [10]): 0.5 h; ED50 (Mus musculus [12]): 51.7 mg/kg; Activity (Mus musculus [11]): 100 mg/kg
15 | O=C1CC(C(c2ccccc2)c2ccccc2)C(=O)N1CN1CCN(Cc2ccccc2)CC1 (configuration not stated) |  | Non-Toxic | inactive |  | inactive | Non-Toxic | Activity (Mus musculus [14]): 100 mg/kg; Activity (Mus musculus [11]): 300 mg/kg
16 | CN1CCN(CN2C(=O)CCC2=O)CC1 | inactive | Non-Toxic | inactive | inactive | inactive | Non-Toxic | 

Row | Compound | Activity (Mus musculus [1]) | Activity (Mus musculus [2]) | Activity (Mus musculus [3]) | Activity (Mus musculus [4]) | Activity (Mus musculus [5]) | Activity (Mus musculus [6]) | other results
17 | CC(C)C1CC(=O)N(CN2CCN(Cc3ccccc3)CC2)C1=O (configuration not stated) | inactive | Non-Toxic | inactive | inactive | inactive | Non-Toxic | 
18 | CC(C)C1CC(=O)N(CN2CCN(C)CC2)C1=O (configuration not stated) |  | Non-Toxic | inactive |  | inactive | Non-Toxic | ED50 (Mus musculus [7]): 74.9 mg/kg; TD50 [8]: > 300 mg/kg; Activity (Mus musculus [14]): 100 mg/kg; Ratio TD50/ED50 (Mus musculus [9]): >4; Activity (Mus musculus [19]): inactive; Time (Mus musculus [10]): 0.5 h; Activity (Mus musculus [20]): inactive; Activity (Mus musculus [11]): 300 mg/kg
19 | CC1CC(=O)N(CN2CCN(Cc3ccccc3)CC2)C1=O (configuration not stated) | inactive | Non-Toxic | inactive | inactive | inactive | Non-Toxic | 
20 | O=C1CC(C(c2ccccc2)c2ccccc2)C(=O)N1CN1CCN(C2CCCCC2)CC1 (configuration not stated) |  | Non-Toxic | inactive |  | inactive | Non-Toxic | Activity (Mus musculus [14]): 300 mg/kg; Activity (Mus musculus [11]): 300 mg/kg
21 | CC(C)C1CC(=O)N(CN2CCC(Cc3ccccc3)CC2)C1=O (configuration not stated) | inactive | Non-Toxic | inactive | inactive | inactive | Non-Toxic | 
22 | CN1CCN(CN2C(=O)CC(C(c3ccccc3)c3ccccc3)C2=O)CC1 (configuration not stated) |  | Non-Toxic |  | inactive |  |  | ED50 (Mus musculus [7]): 75.6 mg/kg; Activity (Mus musculus [13]): 300 mg/kg; TD50 [8]: 247 mg/kg; Activity (Mus musculus [14]): 100 mg/kg; Ratio TD50/ED50 (Mus musculus [9]): 3.26; Ratio TD50/ED50 (Mus musculus [15]): 6.28; Activity (Mus musculus [19]): Active; Activity (Mus musculus [17]): 300 mg/kg; Activity (Mus musculus [18]): 300 mg/kg; Time (Mus musculus [10]): 0.5 h; Activity (Mus musculus [20]): 100%; ED50 (Mus musculus [12]): 39.2 mg/kg
23 | O=C1CC(C(c2ccccc2)c2ccccc2)C(=O)N1CN1CCN(c2ncccn2)CC1 (configuration not stated) |  | Non-Toxic | inactive | inactive | inactive | Non-Toxic | Activity (Mus musculus [14]): 300 mg/kg
24 | COC[C@@H](NC(C)=O)C(=O)NCc1ccccc1 [LACOSAMIDE] |  |  |  |  |  |  | Time (Mus musculus [10]): 0.5 h; ED50 (Mus musculus [12]): 5.2 mg/kg
25 | O=C1CCC(=O)N1CN1CCN(C2CCCCC2)CC1 | inactive | Non-Toxic | inactive | inactive | inactive | Non-Toxic | 
26 | CC1CC(=O)N(CN2CCN(C3CCCCC3)CC2)C1=O (configuration not stated) | inactive | Non-Toxic | inactive | inactive | inactive | Non-Toxic | 
27 | CC1CC(=O)N(CN2CCN(c3ncccn3)CC2)C1=O (configuration not stated) | inactive | Non-Toxic | inactive | inactive | inactive | Non-Toxic | 
28 | CC(C)C1CC(=O)N(CN2CCOCC2)C1=O (configuration not stated) | inactive | Non-Toxic | inactive |  | inactive | Non-Toxic | Activity (Mus musculus [19]): inactive; Activity (Mus musculus [20]): inactive; Activity (Mus musculus [11]): 300 mg/kg
29 | CC1CC(=O)N(CN2CCOCC2)C1=O (configuration not stated) | inactive | Non-Toxic | inactive | inactive | inactive | Non-Toxic | 
30 | CC1CC(=O)N(CN2CCN(C)CC2)C1=O (configuration not stated) | inactive | Non-Toxic | inactive | inactive | inactive | Non-Toxic | 
31 | CC(C)C1CC(=O)N(CN2CCN(CCO)CC2)C1=O (configuration not stated) | inactive | Non-Toxic |  |  | inactive | Non-Toxic | Activity (Mus musculus [18]): 300 mg/kg; Activity (Mus musculus [11]): 300 mg/kg
